According to article PMC7693160 (Pharmaceutics, 2020):
In brackets after ≈: the same amount, converted by molar mass. Like-named read-outs stand apart in the source and are kept apart here.

What was measured:
[1] = Equilibrium solubility, Uniprep method, 24 h at 37 °C; format: physicochemical
Procedure: The solubility of FLU was investigated in various aqueous and biorelevant dissolution media using the Uniprep system (Whatman, Piscataway, NJ, USA). All aqueous buffers were prepared according to the European Pharmacopoeia, while the biorelevant media were prepared according to Markopoulos et al. and Fuchs et al.. An excess amount of API was added to 3 mL of dissolution medium and the samples were incubated for 24 h at 37 °C on an orbital mixer. The samples were then filtered through the 0.45 μm polytetrafluoroethylene (PTFE) filter integrated in the Uniprep system. The filtrate was immediately diluted with mobile phase and analyzed by high-performance liquid chromatography (HPLC) (see Section 2.5). All measurements were performed at least in triplicate (n ≥ 3) and the final pH was recorded. […] Whatman, Piscataway, NJ, USA) and subsequently, after appropriate dilution with mobile phase, analyzed by HPLC-UV (Hitachi Chromaster; Hitachi Ltd., Tokyo, Japan or Spectra System HPLC, ThermoQuest Inc., San Jose, CA, USA). A BDS Hypersil C18, 5 μm, 150 × 4.6 mm (Thermo Scientific, Waltham, MA, United States) analytical column combined with a pre-column (BDS Hypersil C-18, 3μm, 10 × 4mm) was used. The mobile phase consisted of water adjusted to pH = 3.0 with trifluoroacetic acid (TFA) and acetonitrile (49.5:0.5:50% v/v). The detection wavelength was set at 247 nm, the flow rate at 1.0 mL/min, and the injection volume at 20 μL. Using this method, the retention time was approximately 6.8 min.

physchem = format: physicochemical
Source text: An experimental estimate of FLU pKa was obtained by fitting the Henderson–Hasselbalch equation (Equation (1)) to the mean aqueous equilibrium solubility (Si) values using the SIVA Toolkit version 3.0 (SIVA 3; Certara, Simcyp Division; Sheffield, UK). The lowest reported value in buffers was assumed to represent the intrinsic solubility (S0) . The pKa was then compared with values available in the literature to confirm the validity of the aqueous solubility parameter estimates. (1) Si=S0·10 ^pH−pKa The impact of bile salt concentration BS and subsequent formation of micelles on the solubility of FLU was investigated. […] Estimates of the logarithm of the micelle-water partition coefficient for the neutral Km:w,unionized and ionized drug Km:w,ionized were obtained to quantify the micelle-mediated solubility. […] Estimation of the relevant parameters was performed using the Nelder–Mead algorithm with weighting by the reciprocal of the predicted values. All estimates based on the in vitro solubility data were used as in silico input parameters for the development of the physiologically based pharmacokinetic (PBPK) model.

[2] = In vitro dissolution, USP II paddle apparatus; format: physicochemical
Procedure: All dissolution tests were performed using a calibrated USP II (paddle) apparatus (Erweka DT 80, Heusenstamm, Germany) at 37 ± 0.4 °C. Each vessel contained 500 mL of fresh, pre-warmed medium and the rotational speed was set at 75 rpm. Samples were withdrawn at 2.5, 5, 10, 15, 20, 30, 45, 60, 90, and 120 min via a 5 mL glass syringe connected to a stainless-steel cannula containing a 10 μm polyethylene cannula filter. Immediately thereafter, the sample was filtered through a 0.45 μm PTFE filter (ReZist 30, GE Healthcare UK Ltd., Buckinghamshire, United Kingdom), discarding the first 2 mL. The filtrate was immediately diluted with mobile phase and analyzed by HPLC-UV (see Section 2.5). The removal of 5 mL at each sampling time was considered in the calculation of the percentage dissolved. All experiments were performed at least in triplicate (n ≥ 3) and the final pH in the vessel was recorded.
Samples obtained from solubility and dissolution experiments were first filtered through a 0.45 μm PTFE filter (ReZist 30 syringe filter or Uniprep; Whatman, Piscataway, NJ, USA) and subsequently, after appropriate dilution with mobile phase, analyzed by HPLC-UV (Hitachi Chromaster; Hitachi Ltd., Tokyo, Japan or Spectra System HPLC, ThermoQuest Inc., San Jose, CA, USA). A BDS Hypersil C18, 5 μm, 150 × 4.6 mm (Thermo Scientific, Waltham, MA, United States) analytical column combined with a pre-column (BDS Hypersil C-18, 3μm, 10 × 4mm) was used. The mobile phase consisted of water adjusted to pH = 3.0 with trifluoroacetic acid (TFA) and acetonitrile (49.5:0.5:50% v/v). The detection wavelength was set at 247 nm, the flow rate at 1.0 mL/min, and the injection volume at 20 μL. Using this method, the retention time was approximately 6.8 min. The limit of detection (LOD) and quantification (LOQ) were 0.03 and 0.05 μg/mL, respectively.

UGT1A9 = conditions: Recombinant UGT; cited from earlier work
[3] = tested on: tooth pulp-evoked potentials (TPEP) amplitude and subjective pain intensity rating; conditions: cited from earlier work; for Rmax obs: 100 mg tablet; for TRmax obs: median
CYP2C9 3*/3* = conditions: Recombinant CYP (fu,mic = 1), cited from earlier work

## CC(C(=O)O)c1ccc(-c2ccccc2)c(F)c1 (stereo not shown) [flurbiprofen]
[1]; 37 °C, aqueous buffer, thermodynamic from solid, Acetate buffer (pH = 4.5), pHfinal 4.7, read-out: Solubility, mean (SD)
  solubility at 24 h: 101 µg/mL (≈ 414 µM)
[1]; 37 °C, aqueous buffer, thermodynamic from solid, Phosphate buffer (pH = 6.5), pHfinal 6.1, read-out: Solubility, mean (SD)
  solubility at 24 h: 2020 µg/mL (≈ 8290 µM)
[1]; 37 °C, aqueous buffer, thermodynamic from solid, Phosphate buffer (pH = 6.8), pHfinal 6.3, read-out: Solubility, mean (SD)
  solubility at 24 h: 3130 µg/mL (≈ 12800 µM)
[1]; 37 °C, fassgf or other biorelevant, thermodynamic from solid, Level III FaSSGF (pH = 1.6), pHfinal 1.6, read-out: Solubility, mean (SD)
  solubility at 24 h: 18.5 µg/mL (≈ 75.7 µM)
[1]; 37 °C, thermodynamic from solid, FaSSGF Level I (pH = 1.6), pHfinal 1.6, read-out: Solubility, mean (SD)
  solubility at 24 h: 18.1 µg/mL (≈ 74.1 µM)
[1]; 37 °C, thermodynamic from solid, FeSSIF V1 Level I (pH = 5.0), pHfinal 5.1, read-out: Solubility, mean (SD)
  solubility at 24 h: 225 µg/mL (≈ 923 µM)
[1]; 37 °C, thermodynamic from solid, Level II FaSSIF V1 (pH = 6.5), pHfinal 6.0, read-out: Solubility, mean (SD)
  solubility at 24 h: 1950 µg/mL (≈ 8000 µM)
[1]; 37 °C, thermodynamic from solid, Level II FaSSIF V3 (pH = 6.7), pHfinal 5.9, read-out: Solubility, mean (SD)
  solubility at 24 h: 1590 µg/mL (≈ 6490 µM)
[1]; aqueous buffer (FaSSGF Level I), pH 1.6, minimum experimentally measured value, read-out: S0 (intrinsic solubility)
  solubility at 24 h: 18 µg/mL (≈ 73.7 µM)
physchem
  pKa: 4.05
[2]; FaSSGF Level I, 100 mg
  maximum dissolved: 5.5%
[2]; FaSSGF Levels I and III, 100 mg
  plateau of in vitro release: around 8.3 % of the dose
[2]; FaSSIF V3 Level I (without bile components)
  time to 85% dissolved: 60 min
[2]; FaSSIF V3 Level II
  time to >85% dissolved: ≤ 2.5 min
[2]; Ph. Eur. phosphate buffer (pH 6.8)
  time to >85% dissolved: ≤ 15 min
UGT1A9
  Km: 182 µM
  UGT1A9-Vmax: 3.286 pmol/min/mg protein
[3]; Pain intensity reduction
  Rmax obs: 53.1%
  AUCE obs: 224.2 %·h
  TRmax obs: 4.00 h
[3]; TPEP amplitude reduction
  Rmax obs: 47.3%
  AUCE obs: 224.2 %·h
  TRmax obs: 4.00 h
CYP2C9 3*/3*
  CYP2C9 3*/3*-Vmax: 8.901 pmol/min/pmol CYP
CYP2C9 3*/3*; read-out: CYP2C9 3*/3*-Km
  Km: 23.2 µM
